Patent publication US20040006042A1, “Diaminopyrimidines and combination therapies effective for treatment of P-glycoprotein positive cancers” (priority 1998, published 2004)
Converted amounts (≈) assume the structure as drawn. Where a name gives a salt, the structure may show the parent alone. Read-outs that look alike come from different tables or passages of the source.

Columns and labels:
dihydrofolate reductase = target: T1, dihydrofolate reductase (Homo sapiens, UniProt P00374); assay: Inhibition of dihydrofolate reductase (Table 1); format: biochemical
T1 sequence (P00374 1-187): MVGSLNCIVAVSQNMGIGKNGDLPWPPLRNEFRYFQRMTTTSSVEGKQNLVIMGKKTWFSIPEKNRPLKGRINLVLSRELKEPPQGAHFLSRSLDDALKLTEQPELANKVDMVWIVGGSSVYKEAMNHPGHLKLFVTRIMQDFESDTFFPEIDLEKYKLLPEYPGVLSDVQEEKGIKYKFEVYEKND

P388S cells = assay: In vitro growth inhibition of P388S cells; format: cell-based; conditions: for IC50: Mus musculus, P388/S, read-out: P388S IC50
P388/ADR cells [1] = assay: In vitro growth inhibition of P388/ADR cells; format: cell-based, murine; conditions: for IC50: Mus musculus, P388/ADR; for R/S: ratio resistant (P388/ADR) to sensitive (P388S) IC50
P388 leukemia = assay: In vivo P388 leukemia life span study; parameters: species or system CD2F1 mice; conditions: maximum tolerated dose, i.p. Days 3-11 (Adriamycin Days 3, 7, 11); >130 = antitumor effect
P388/ADR leukemia = assay: In vivo P388/ADR leukemia life span study; parameters: species or system CD2F1 mice; conditions: for P388/ADR T/C: maximum tolerated dose, i.p. Days 3-11 (Adriamycin Days 3, 7, 11), >130 = antitumor effect
[2] = system: Colon 26/clone 10 (C26/10); assay: Colon 26/clone 10 i.p. life span study; format: in vivo, CD2F1 mice; conditions: for C26 ip T/C: i.p. implant, treated i.p. Days 3-7 and 10-14 (Adriamycin Days 5, 9, 13), >130 = antitumor effect; for activity against C26 colon tumor in vivo: in words, T/C×100>130 represents in vivo antitumor activity
Protocol: (§1) To test compounds of the present invention in vivo, the following methodology was used. P388 leukemia and its Adriamycin resistant subline, P388/ADR were passed weekly in DBA/2 mice as i.p. implants of 10^5 and 10^6 cells, respectively. Animals bearing P388/ADR passage were treated with 7 mg/kg Adriamycin on Day 3 post-implant as a resistance selection pressure. C26/clone 10 was passed every 2 weeks into Balb/c mice as tumor fragments (approximately 30 mg) which were obtained from tumors 1 g in mass.
Colon 26/clone 10 (C26/10) life span studies were conducted in CD2F1 mice. C26/C10 cells were implanted i.p. on Day 0. Animals were treated i.p. with test agents in the vehicles described above on Days 3-7 and 10-14. Adriamycin was dosed i.p. in saline on Days 5, 9, and 13. […] Percent T/C values in excess of 130 are indicative of an antitumor effect in this model.

C26/10 tumor = assay: C26/10 s.c. tumor growth delay study; format: in vivo, CD2F1 mice; conditions: tumor growth delay to 750 mg, s.c. implant, treated i.p. Days 3-7 and 10-14; >5 to 6 days = antitumor effect
Protocol: as §1
For the tumor growth delay studies with C26/10, CD2F1 mice were implanted s.c. with 30 mg tumor fragments in the region of the right axilla with the aid of a trocar on Day 0. Animals were treated i.p. with test agents in the vehicles described above on Days 3-7 and 10-14. Adriamycin was dosed i.p. in saline on Days 5, 9, and 13. Tumors in the treated and control groups were measured twice weekly in two perpendicular dimensions and tumor mass calculated according to the formula: mass (mg)=(a×b^2)/2 where “b” is the smallest tumor dimension and “a” is the largest. Calculations of tumor growth delay, defined as the median time (in days) for the treated tumors to reach 750 mg in size minus the median time (in days) for the control tumors to reach 750 mg in size, were as described previously (Schabel, 1977; Leopold, 1985; Elliot, 1984). Growth delays in excess of 5 to 6 days in the C26/10 model are considered to be an antitumor effect.

[3] = system: P388 murine leukemia cells; assay: Combination of antifolates with FU and LV on P388 proliferation; format: cell-based; conditions: for Antifol + FU / Antifol + LV / Antifol + LV + FU: antifolate 1.0 nM 24 hours; for Antifol + FU / Antifol + LV + FU: 5 μM FU final 4 hours; for Antifol + LV / Antifol + LV + FU: LV 10 μM final 4.5 hours; for Antifol: antifolate 1.0 nM, 24 hours
[4] = system: HT29 human colon adenocarcinoma cells
[5] = system: HT29 human colon adenocarcinoma cells; assay: Combination of antifolates with FU and LV on HT-29 proliferation (sulphorhodamine B); conditions: for Antifol: antifolate 62.5 nM, 24 hours
P388/ADR cells [6] = assay: Combination of antifolates with FU and LV on P388/ADR proliferation; format: cell-based, murine; conditions: for Antifol + FU / Antifol + LV / Antifol + LV + FU / Antifol: P388/ADR; for Antifol + FU / Antifol + LV + FU: 5 μM FU final 4 hours; for Antifol + LV / Antifol + LV + FU: LV 10 μM final 4.5 hours; for Antifol: 24 hours
[7] = system: C26 murine colon tumor cells; assay: Combination of antifolates with FU and LV on C26 proliferation; format: cell-based
colon cancer = conditions: cited from earlier work
[8] = antifolate 62.5 nM 24 hours, LV 10 μM final 4.5 hours
[9] = in words, TMQ at a concentration 10-fold higher than the other antifolates

Row | SMILES | Ki (dihydrofolate reductase) [nM] | IC50 (P388S cells; in vitro) [µg/mL] | IC50 (P388/ADR cells [1]; in vitro) [µg/mL] | R/S (P388/ADR cells [1]) | P388S T/C (P388 leukemia) [%] | P388/ADR T/C (P388/ADR leukemia) [%] | C26 ip T/C [2] [%] | C26 sc T-C (C26/10 tumor) [days] | Antifol + FU [3] | Antifol + LV [3] | Antifol + LV + FU [3] | Antifol [3] | Antifol + FU [4] | Antifol + LV + FU [4] | Antifol + LV [5, 8] | Antifol [5] | activity against C26 colon tumor in vivo [2] | other results
1 | CC(=O)c1ccc(N2CCN(c3c(C)nc(N)nc3N)CC2)cc1 [D, 1-{4-[4-(2,4-Diamino-6-methyl-pyrimidin-5-yl)-piperazin-1-yl]-phenyl}-ethanone] | 0.131 | 0.01 (≈ 0.0306 µM) | 0.01 (≈ 0.0306 µM) | 1 | 182 | 180 | 171 | 17.3 | 10% of control | 110% of control | 5% of control | 70% of control | 50% of control | 42% of control | 90% of control | 92% of control | – | –
2 | Cc1nc(N)nc(N)c1N1CCN(c2ccc(C=O)cc2)CC1 [Example 1] | 0.073 | 0.005 (≈ 0.016 µM) | 0.0068 (≈ 0.0218 µM) | 1.1 | 190 | 169 | 263 | 7.6 | – | – | – | – | – | – | – | – | curative | –
3 | Cc1nc(N)nc(N)c1N1CCN(c2ccc(/C=N/OCCN)cc2)CC1 [Example 12, 4-[4-(2,4-Diamino-6-methyl-pyrimidin-5-yl)-piperazin-1-yl]-benzaldehyde O-(2-amino-ethyl)-oxime, dihydrochloride] | – | – | 0.0117 | 1.1 | – | – | – | 5.2 | 20% of control | 97% of control | 16% of control | 100% of control | 35% of control | 27% of control | 67% of control | 52% of control | – | IC50 (P388S cells): 0.011 µg/mL; Antifol + FU (P388/ADR cells [6]; antifolate 1 nM 24 hours): 30% of control; Antifol + LV (P388/ADR cells [6]; antifolate 1 nM 24 hours): 65% of control; Antifol + LV + FU (P388/ADR cells [6]; antifolate 1 nM 24 hours): 25% of control; Antifol (P388/ADR cells [6]; antifolate 1 nM): 65% of control
4 | Nc1ncc(N2CCN(c3ccc(C(=O)O)cc3)CC2)c(N)n1 [G] | – | – | – | 0.98 | 220 | 245 | 202 | 4.9 | – | – | – | – | – | – | – | – | – | P388S IC50 (P388S cells; in vitro): 0.076 µg/mL; P388/ADR IC50 (P388/ADR cells [1]; in vitro): 0.074 µg/mL
5 | CC(=O)c1ccc(N2CCN(c3c(C)nc(N)nc3N)CC2)cc1F [H, 1-{4-[4-(2,4-Diamino-6-methyl-pyrimidin-5-yl)-piperazin-1-yl]-2-fluoro-phenyl}-ethanone] | – | 0.0026 (≈ 0.00755 µM) | 0.029 (≈ 0.0842 µM) | 1.1 | 170 | – | 169 | 9.4 | 20% of control | 86% of control | 15% of control | 82% of control | 52% of control | 40% of control | 77% of control | 74% of control | – | –
6 | COc1cc(NCc2ccc3nc(N)nc(N)c3c2C)cc(OC)c1OC [Trimetrexate, reference compound] | – | 0.0069 (≈ 0.0187 µM) | 0.152 (≈ 0.411 µM) | 22 | 164 | 113 | 119 | 6.8 | 12% of control | 85% of control | 9% of control | 80% of control | – | – | 77% of control | 75% of control | without activity | activity against P388/ADR tumors in vivo (P388/ADR leukemia; in words): inactive; Antifol + FU (P388/ADR cells [6]; TMQ 10 nM 24 hours): 83% of control; Antifol + LV (P388/ADR cells [6]; TMQ 10 nM 24 hours): 100% of control; Antifol + LV + FU (P388/ADR cells [6]; TMQ 10 nM 24 hours): 76% of control; Antifol (P388/ADR cells [6]; TMQ 10 nM): 92% of control; activity alone against P388/ADR cells (P388/ADR cells [6]; [9]): little activity alone; increase in activity by addition of FU or LV, P388/ADR cells (P388/ADR cells [6]; [9]): nor was a significant increase in activity observed; Antifol + FU ([7]; C26, antifolate 0.125 μM 24 hours, 5 μM FU final 4 hours): 65% of Control; Antifol + LV ([7]; C26, antifolate 0.125 μM 24 hours, LV 10 μM final 4.5 hours): 98% of Control; Antifol + FU + LV ([7]; C26, antifolate 0.125 μM 24 hours, LV 10 μM final 4.5 hours, 5 μM FU final 4 hours): 64% of Control; Antifol ([7]; C26, antifolate 0.125 μM, 24 hours): 101% of Control; effect on C26 proliferation alone ([7]; in words, 0.125 μM): no effect; synergy with FU and/or LV on C26 cells ([7]; in words, 0.125 μM): no significant synergy; response rate (colon cancer; TMQ added to LV/FU, colon cancer patients previously treated with FU): 20%; response rate (colon cancer; combination of TMQ, FU and LV, metastatic colorectal cancer patients): 50%; Antifol + FU ([5]; antifolate 62.5 nM 24 hours, 5 μM FU final 4 hours): 35% of control; Antifol + LV + FU ([5]; antifolate 62.5 nM 24 hours, LV 10 μM final 4.5 hours, 5 μM FU final 4 hours): 30% of control
